The source made the active and inactive calls. Cut-off read from the data, not from the text of the source, for most assays here: actives have a measured EC50 and inactives only a lower limit.
Legend:
[1] = Luminescence Cell-Based Dose Response HTS to Identify Activators of Luciferase Translation or Activity in H4 […] Cells. [Related pubchem assays: 1829 (Project Summary), 1814 (Primary HTS)]; type: functional
[2] = Luminescence Cell-Based Dose Confirmation HTS to Identify Activators of 5'UTR Stem-Loop Driven Alpha-Synuclein mRNA Translation in H4 Neuroglioblastoma Cells. [Related pubchem assays: 1829 (Project Summary), 1814 (Primary HTS)]; type: functional
H4 = test: Luminescence Cell-Based Dose Response HTS to Identify Activators of 5'UTR Stem-Loop Driven Prion Protein mRNA Translation in H4 Neuroglioblastoma Cells. [Related pubchem assays: 1829 (Project Summary), 1814 (Primary HTS)]; type: functional; conditions: Homo sapiens
[3] = inhibitors of SNCA 5'UTR-driven reporter translation, confirmation, H4 neuroglioma cells, luminescence (AID 1988); type: functional, cell-based
[4] = Luminescence Cell-Based Dose Response HTS to Identify Inhibitors of 5'UTR Stem-Loop Driven Prion Protein mRNA Translation in H4 Neuroglioblastoma Cells. [Related pubchem assays: 1827 (Project Summary), 1813 (Primary HTS)]; type: functional
[5] = inhibitors of firefly luciferase expression or activity, dose response, H4 neuroglioma cells, luminescence (AID 1990); type: functional, cell-based
[6] = growth suppression of beta-catenin-knockout colon cells, dose response, cell-based, HCT116, human colon tumor (AID 1045); type: functional;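 note: HCT116 colon tumor cells with beta catenin knocked out; cells exposed to compound for 60 hours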
[7] = growth suppression of PTEN-null colon cells, dose response, cell-based, HCT116 PTEN knockout (AID 1047); type: functional;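 note: HCT116 colon tumor cells with PTEN knocked out; cells exposed to compound for 60 hours before readout; potency for loss of cell viability measured by luminescence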
[8] = target: T1, Replicative DNA helicase DnaB (Mycobacterium tuberculosis, UniProt P9WMR3); test: DnaB intein splicing inhibitors, dose response, biochemical, cell-free fluorescence (AID 449749); type: functional
T1 sequence (P9WMR3 whole entry): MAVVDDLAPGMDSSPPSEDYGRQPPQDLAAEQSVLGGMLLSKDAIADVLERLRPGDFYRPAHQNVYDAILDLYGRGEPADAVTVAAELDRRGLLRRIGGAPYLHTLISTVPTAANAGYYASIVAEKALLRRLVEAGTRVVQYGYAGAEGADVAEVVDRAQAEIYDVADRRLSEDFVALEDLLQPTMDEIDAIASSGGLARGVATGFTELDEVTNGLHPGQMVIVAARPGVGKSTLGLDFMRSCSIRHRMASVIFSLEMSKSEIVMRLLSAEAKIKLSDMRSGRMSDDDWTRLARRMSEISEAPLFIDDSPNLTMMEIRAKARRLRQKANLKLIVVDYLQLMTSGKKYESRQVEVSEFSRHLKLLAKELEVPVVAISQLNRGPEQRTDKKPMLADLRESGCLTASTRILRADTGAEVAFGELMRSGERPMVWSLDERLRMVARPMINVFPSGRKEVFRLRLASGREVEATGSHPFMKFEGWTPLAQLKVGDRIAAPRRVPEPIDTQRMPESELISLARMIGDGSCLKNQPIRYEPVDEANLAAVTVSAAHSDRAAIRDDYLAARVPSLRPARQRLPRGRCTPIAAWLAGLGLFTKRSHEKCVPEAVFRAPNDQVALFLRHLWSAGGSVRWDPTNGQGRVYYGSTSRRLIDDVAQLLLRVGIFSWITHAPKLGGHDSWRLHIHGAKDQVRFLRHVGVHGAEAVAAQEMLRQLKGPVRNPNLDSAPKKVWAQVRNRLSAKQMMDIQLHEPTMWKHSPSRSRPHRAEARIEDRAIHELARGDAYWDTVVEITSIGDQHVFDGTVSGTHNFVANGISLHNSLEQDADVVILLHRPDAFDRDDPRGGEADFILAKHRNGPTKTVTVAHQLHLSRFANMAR

Protein RecA = target: T2, Protein RecA (Mycobacterium tuberculosis, UniProt P9WHJ3); test: Fluorescence Cell-Free Homogeneous Dose Retest to Identify Inhibitors of RecA-Intein Splicing Activity. [Related pubchem assays (depositor defined):AID2097, AID2223, AID489010, AID492950]; type: functional
T2 sequence (P9WHJ3 whole entry): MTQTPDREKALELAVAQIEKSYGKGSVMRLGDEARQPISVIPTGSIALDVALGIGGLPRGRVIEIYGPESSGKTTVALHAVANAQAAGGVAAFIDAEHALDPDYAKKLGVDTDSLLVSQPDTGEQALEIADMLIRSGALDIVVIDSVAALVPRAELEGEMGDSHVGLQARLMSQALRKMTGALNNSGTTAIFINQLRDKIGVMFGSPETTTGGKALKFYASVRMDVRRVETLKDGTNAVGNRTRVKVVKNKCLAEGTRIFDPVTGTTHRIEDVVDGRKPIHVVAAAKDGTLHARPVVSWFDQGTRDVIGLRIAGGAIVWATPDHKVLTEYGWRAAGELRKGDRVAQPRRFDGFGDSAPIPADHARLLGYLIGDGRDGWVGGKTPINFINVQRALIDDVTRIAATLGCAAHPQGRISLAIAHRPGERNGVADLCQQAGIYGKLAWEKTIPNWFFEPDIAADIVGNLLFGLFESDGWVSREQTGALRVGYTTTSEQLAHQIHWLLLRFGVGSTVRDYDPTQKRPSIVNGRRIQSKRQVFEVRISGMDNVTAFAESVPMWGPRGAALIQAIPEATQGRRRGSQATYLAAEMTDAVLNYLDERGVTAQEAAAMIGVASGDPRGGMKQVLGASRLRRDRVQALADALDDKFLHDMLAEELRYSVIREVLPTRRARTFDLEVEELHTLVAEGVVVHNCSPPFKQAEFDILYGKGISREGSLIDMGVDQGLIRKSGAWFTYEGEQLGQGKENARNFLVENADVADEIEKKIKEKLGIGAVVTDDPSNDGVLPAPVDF

[9] = Luminescence Cell-Based Dose Retest to Confirm Inhibitors of Cancer Stem Cells. [Related pubchem assays (depositor defined):AID2717, AID2721]; type: functional; conditions: Homo sapiens
[10] = inhibitors of intracellular T. cruzi replication, confirmation, NIH3T3 host cells, beta-gal luminescence (AID 2044); type: functional, cell-based;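 note: intracellular parasites grown in NIH/3T3 mouse fibroblasts as host cells; luminescent beta-galactosidase reporter signal from transgenic T. cruzi replicating inside host cells; inhibitors lower the luminescence signal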
[11] = cytotoxicity toward NIH3T3 fibroblasts, dose response, counter-screen, cell-based, ATP luminescence, mouse fibroblasts (AID 2010); type: functional;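 note: cells exposed to compound for about 90 hours before reading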
Streptococcus = test: Group A Streptococcus viability loss, dose response, counter-screen for streptokinase expression inhibitor project, luminescence, BacTiterGlo (AID 1915); type: functional, organism-based;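 note: potency for reduction of bacterial viability or growth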
[12] = system: Streptococcus sp. 'group A'; test: growth inhibition of control SK(-) GAS strain, dose response, counter-screen for streptokinase expression inhibitor project, luminescence, kanamycin, BacTiterGlo, confirmation (AID 1900); type: functional, organism-based
Streptokinase A = target: T3, Streptokinase A (Streptococcus pyogenes serotype M1, UniProt P10520); test: S. pyogenes streptokinase expression inhibitors, potency, dose response, plasminogen activation absorbance, OD405 (AID 1914); type: functional, Streptococcus pyogenes M1 GAS;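 note: secreted streptokinase activity via plasminogen activation per viability signal from cell pellet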
T3 sequence (P10520 whole entry): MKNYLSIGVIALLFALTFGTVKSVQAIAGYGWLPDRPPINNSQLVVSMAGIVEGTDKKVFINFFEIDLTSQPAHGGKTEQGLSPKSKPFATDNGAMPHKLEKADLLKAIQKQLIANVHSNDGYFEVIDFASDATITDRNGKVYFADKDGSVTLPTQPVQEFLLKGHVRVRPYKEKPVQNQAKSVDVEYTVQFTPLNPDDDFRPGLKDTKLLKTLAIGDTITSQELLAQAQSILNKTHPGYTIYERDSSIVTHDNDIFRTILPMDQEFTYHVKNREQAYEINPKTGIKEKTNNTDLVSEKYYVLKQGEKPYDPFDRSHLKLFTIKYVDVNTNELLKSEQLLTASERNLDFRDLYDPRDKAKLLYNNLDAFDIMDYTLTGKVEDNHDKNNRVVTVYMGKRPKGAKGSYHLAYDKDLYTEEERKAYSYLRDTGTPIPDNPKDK

## CN1C(=O)S/C(=C\c2ccc(-n3cncn3)cc2)C1=O
[1]
  EC50: 32.4 µM (active)
[2]
  EC50: 59.6 µM (active)
H4
  EC50: > 120 µM (not active)

## CCCOc1ccc(-c2c(=O)n(O)c3ccccc3[n+]2[O-])cc1
[1]
  EC50: 11.6 µM (active)
[2]
  EC50: 10.1 µM (active)
H4
  EC50: 97.6 µM (active)

## Cc1ccc(S(=O)(=O)N2CCOC23CCN(C(=O)c2ccc(Cl)cc2Cl)CC3)cc1
[3]
  EC50: 13.8 µM (active)
[4]
  EC50: 17.7 µM (active)
[5]
  EC50: > 120 µM (not active)

## Clc1ccc(CN(Cc2ccccc2)C(c2cccs2)c2nnnn2C2CCCC2)cc1 (stereo not given)
[6]
  EC50: 32.8 µM (active)
[7]
  EC50: 53.2 µM (active)

## COC(=O)c1sccc1NC(=O)c1cc(-c2cccc(C)c2)nc2ccccc12
[6]
  EC50: 8.24 µM (active)
[7]
  EC50: 6.74 µM (active)

## O=S(=O)(Nc1ccc(-n2cnnn2)cc1)c1ccc(F)c(F)c1F
[8]
  AC50: > 380 µM (inactive)
Protein RecA
  EC50: > 380 µM (inactive)

## CC(C)(C)c1ccc(/C=C/C(=O)c2ccc(NC3=NCCCS3)cc2)cc1
[6]
  EC50: 4.92 µM (active)
[9]
  AC50: 2.63 µM (active)
[10]
  EC50: 2.08 µM (active)
[11]
  EC50: > 60 µM (not active)
[7]
  EC50: 6.9 µM (active)

## COc1ccc(F)cc1CN1CCN(c2ncnc3scc(-c4ccccc4)c23)CC1
[3]
  EC50: 15.6 µM (active)
[4]
  EC50: 23.9 µM (active)
[5]
  EC50: 15.8 µM (active)

## O=C(CSc1nnc(-c2ccc3c(c2)OCO3)o1)Nc1ncc(Cl)cc1Cl
[6]
  EC50: 9.18 µM (active)
[7]
  EC50: 11.4 µM (active)

## C[C@@H]1OC(Nc2ccc(N=Nc3ccccc3)cc2)[C@H](O)[C@H](O)[C@H]1O (stereo not given in full)
[1]
  EC50: 54.8 µM (active)
[2]
  EC50: 16.9 µM (active)
H4
  EC50: 11.1 µM (active)

## COc1ccccc1C(=O)Nc1nnc(C)s1
[1]
  EC50: 4.92 µM (active)
[2]
  EC50: 0.108 µM (active)
H4
  EC50: 26.3 µM (active)

## CCCCCC(=O)Cc1cc(O)cc2c1C(=O)Oc1cc(O)c(C(=O)O)c(CCCCC)c1O2 [PHYSODIC ACID]
Streptococcus
  EC50: > 150 µM (not active)
[12]
  EC50: 2.36 µM (active)
Streptokinase A
  EC50: 15.9 µM (active)
[8]
  AC50: 2.05 µM (active)
Protein RecA
  EC50: 3.23 µM (active)

## Cn1c(C(=O)NCCCN2CCN(c3ccccc3F)CC2)cc2c(=O)n(C)c3ccccc3c21
[6]
  EC50: 17.7 µM (active)
[7]
  EC50: 17.2 µM (active)

## COc1ccc2oc(=O)c(-c3nnc(NCc4ccco4)s3)cc2c1
[1]
  EC50: 78.7 µM (active)
[2]
  EC50: 23.1 µM (active)
H4
  EC50: 1.91 µM (active)

## CCOc1ccc(NC(c2ccccn2)c2oc(CO)cc(=O)c2O)cc1 (stereo not given)
[1]
  EC50: 0.175 µM (active)
H4
  EC50: 22.2 µM (active)

## CC(C)Nc1nc(N=C(N)S)nc(NC(C)C)n1
[3]
  EC50: > 120 µM (not active)
[4]
  EC50: > 120 µM (not active)
[5]
  EC50: > 120 µM (not active)

## CCc1cc2c(SCC(=O)Nc3ccc(Cl)cn3)ncnc2s1
[6]
  EC50: 71.3 µM (active)
[7]
  EC50: 31.9 µM (active)

## Cc1ccc2[nH]c(SCC3CCCCO3)nc2c1 (stereo not given)
[4]
  EC50: > 60 µM (inconclusive)

## Cc1ccccc1Nc1c(-c2ccc(N3CCOCC3)cc2)nc2cnccn12
[1]
  EC50: 19.2 µM (active)
[2]
  EC50: 15 µM (active)
H4
  EC50: 16.6 µM (active)

## O=C(Nc1ccc(NC(=O)c2sc3ccccc3c2Cl)cc1)c1ccco1
[6]
  EC50: 9.19 µM (active)
[7]
  EC50: 9.27 µM (active)

## Cc1cccc(C(=O)NC2C(=O)NNC2c2ccc(Cl)cc2)c1 (stereo not given)
[8]
  AC50: 18.7 µM (active)
Protein RecA
  EC50: 18.9 µM (active)

## CC(C)(C)OC(=O)N1CC=C2C(C#N)=C(N)C(C#N)(C#N)C(c3cccs3)C2C1 (stereo not given)
[8]
  AC50: > 380 µM (inactive)
Protein RecA
  EC50: 5.1 µM (active)

## Cc1cc(-c2nnc(-c3cccc(Cl)c3)o2)no1
[1]
  EC50: 0.318 µM (active)
[2]
  EC50: 0.132 µM (active)
H4
  EC50: 119 µM (active)

## CCOc1ccc(NC(=O)c2cn(CC(C)C)c(=O)c3c2c2ccccc2n3C)cc1
[6]
  EC50: 13.4 µM (active)
[7]
  EC50: 10 µM (active)

## CC1CCc2c(c3ccccc3n2C(=O)CCl)C1 (stereo not given)
[8]
  AC50: > 380 µM (inactive)
Protein RecA
  EC50: 0.751 µM (active)

## CCOc1cc(NC(=O)c2ccccc2C)c(OCC)cc1NC(=O)C1=Cc2ccccc2OC1
[3]
  EC50: 9.61 µM (active)
[4]
  EC50: 18.7 µM (active)
[5]
  EC50: > 120 µM (not active)

## COc1cc(C2C(C#N)=C(N)Oc3[nH]nc(C)c32)ccc1OC(=O)c1ccccc1 (stereo not given)
[8]
  AC50: 20.3 µM (active)
Protein RecA
  EC50: 17.3 µM (active)
